Patent publication US20100075343A1, “NOVEL PEPTIDES” (priority 2007, published 2010)

What was measured:
[1] = system: hypothalamic cells of the apoaequorin-expressing mice; experiment: Intracellular calcium ion increase (aequorin luminescence), hypothalamus; assay type: cell-based, mouse; conditions: for increase of intracellular calcium concentration in hypothalamic cells (RLU per second): 5 μmol/L peptide, added at 25 seconds; for luminescence (intracellular calcium ion increase) in hypothalamus: peptide at final concentrations of 1 μmol/L and 5 μmol/L
Experimental: (§1) A hypothalamus, pituitary gland, kidney, heart, blood vessel, or a portion of brain tissue is collected from transgenic mice systemically expressing apoaequorin (WO02/010371) produced by introducing an apoaequorin gene expression vector into fertilized eggs. The obtained hypothalamus, pituitary gland, kidney, heart, blood vessel, or brain tissue is cut finely into pieces, suspended in a medium containing coelenterazine, and then incubated to incorporate coelenterazine into the cells to form aequorin (a complex of apoaequorin and coelenterazine). Since aequorin luminesces upon binding to intracellular calcium ions, the relative luminescence level in cells before and after addition of a medium containing the peptide or a pharmaceutically acceptable salt thereof is measured in a luminometer every second over time and is used as an indicator of intracellular calcium ion concentration. Increase in the relative luminescence level due to addition of the peptide or pharmaceutically acceptable salt thereof confirms that the peptide or pharmaceutically acceptable salt thereof has the activity to increase intracellular calcium ion concentration.
(§2) Whether Peptides 1 to 8 synthesized in Example 2 have the activity of increasing intracellular calcium ion concentration was investigated using the organs of transgenic mice introduced with the apoaequorin gene and systemically expressing apoaequorin (hereinafter referred to as apoaequorin-expressing mice). In apoaequorin-expressing mouse cells, light is emitted when apoaequorin binds to a calcium ion in the presence of the luminescent substrate coelenterazine and thus the intracellular calcium ion concentration can be monitored. Patent Document (WO02/010371) discloses the method for producing apoaequorin-expressing mice, method for evaluating biologically active substances that use biological samples derived from the mice, and experimental results of evaluating biologically active peptides using the mouse organs as shown below. […] Therefore, apoaequorin-expressing mice can be used in the evaluation of the physiological activities of novel peptides.
(§3) Apoaequorin-expressing mice were produced according to the method disclosed in Reference Example 4 of Patent Document (WO02/010371). The apoaequorin-expressing mice were sacrificed, individual organs including thymus, hypothalamus, spleen, bone, aorta, heart, kidney, adrenal gland, pancreas, pituitary gland, uterus, medulla oblongata, and spinal cord were removed; and each of the organs was cut into small cubes of approximately 1 to 2 mm^3. Next, in 5-mL tubes (Rohren-Tubes; manufactured by Sarstedt, No. 55.476), three portions of each of the prepared organs were added to 50 μL of a 10 μmol/L solution of coelenterazine (manufactured by Molecular Probes) dissolved in RPMI 1640 medium, and these were cultured at 37° C. for three hours. After culturing, RPMI 1640 medium was added, and then Peptides 1 to 5 dissolved in RPMI 1640 medium were added 25 seconds after the addition of RPMI 1640 until each peptide had final concentrations of 1 μmol/L and of 5 μmol/L, and the relative luminescence levels were measured every second immediately after the addition of RPMI 1640 medium by using a luminometer (AutoLumat LB953, manufactured by Berthold).

[2] = system: pituitary cells of the apoaequorin-expressing mice; experiment: Intracellular calcium ion increase (aequorin luminescence), pituitary gland; assay type: cell-based, mouse; conditions: for increase of intracellular calcium concentration in pituitary cells (RLU per second): added at 25 seconds; for luminescence (intracellular calcium ion increase) in pituitary gland: peptide at final concentrations of 1 μmol/L and 5 μmol/L
Experimental: as §1, §2, §3

[3] = system: medulla oblongata of apoaequorin-expressing mice; experiment: Intracellular calcium ion increase (aequorin luminescence), medulla oblongata; assay type: cell-based, mouse; conditions: peptide at final concentrations of 1 μmol/L and 5 μmol/L
Experimental: as §1, §2, §3

[4] = system: cardiac cells of the apoaequorin-expressing mice; experiment: Intracellular calcium ion increase (aequorin luminescence), heart; assay type: cell-based, mouse; conditions: for increase of intracellular calcium concentration in cardiac cells (RLU per second): 5 μmol/L peptide, added at 25 seconds; for luminescence (intracellular calcium ion increase) in heart: peptide at final concentrations of 1 μmol/L and 5 μmol/L
Experimental: as §1, §2, §3

[5] = system: kidney cells of the apoaequorin-expressing mice; experiment: Intracellular calcium ion increase (aequorin luminescence), kidney; assay type: cell-based, mouse; conditions: for increase of intracellular calcium concentration in kidney cells (RLU per second): 1 μmol/L peptide, added at 25 seconds; for luminescence (intracellular calcium ion increase) in kidney: peptide at final concentrations of 1 μmol/L and 5 μmol/L
Experimental: as §1, §2, §3

[6] = system: spleen of apoaequorin-expressing mice; experiment: Intracellular calcium ion increase (aequorin luminescence), spleen; assay type: cell-based, mouse; conditions: peptide at final concentrations of 1 μmol/L and 5 μmol/L
Experimental: as §1, §2
(§4) Apoaequorin-expressing mice were produced according to the method disclosed in Reference Example 4 of Patent Document (WO02/010371). […] After culturing, RPMI 1640 medium was added, and then Peptides 1 to 5 dissolved in RPMI 1640 medium were added 25 seconds after the addition of RPMI 1640 until each peptide had final concentrations of 1 μmol/L and of 5 μmol/L, and the relative luminescence levels were measured every second immediately after the addition of RPMI 1640 medium by using a luminometer (AutoLumat LB953, manufactured by Berthold).

[7] = system: uterus of apoaequorin-expressing mice; experiment: Intracellular calcium ion increase (aequorin luminescence), uterus; assay type: cell-based, mouse; conditions: peptide at final concentrations of 1 μmol/L and 5 μmol/L
Experimental: (§5) A hypothalamus, pituitary gland, kidney, heart, blood vessel, or a portion of brain tissue is collected from transgenic mice systemically expressing apoaequorin (WO02/010371) produced by introducing an apoaequorin gene expression vector into fertilized eggs. The obtained hypothalamus, pituitary gland, kidney, heart, blood vessel, or brain tissue is cut finely into pieces, suspended in a medium containing coelenterazine, and then incubated to incorporate coelenterazine into the cells to form aequorin (a complex of apoaequorin and coelenterazine). Since aequorin luminesces upon binding to intracellular calcium ions, the relative luminescence level in cells before and after addition of a medium containing the peptide or a pharmaceutically acceptable salt thereof is measured in a luminometer every second over time and is used as an indicator of intracellular calcium ion concentration. Increase in the relative luminescence level due to addition of the peptide or pharmaceutically acceptable salt thereof confirms that the peptide or pharmaceutically acceptable salt thereof has the activity to increase intracellular calcium ion concentration. […]

[8] = system: spinal cord of apoaequorin-expressing mice; experiment: Intracellular calcium ion increase (aequorin luminescence), spinal cord; assay type: cell-based, mouse; conditions: peptide at final concentrations of 1 μmol/L and 5 μmol/L
Experimental: as §5

[9] = system: antiserum against ESPGPERVW peptide of human VGF; assay type: binding; conditions: 1, 10, and 100 pmol of the peptides
Experimental: Namely, to 100 μL of antiserum diluted 9×10^5 folds with RIA buffer, 100 μL of RIA buffer containing a fixed amount of [^125I]-labeled Peptide 1 (approximately 20000 cpm, 500-550 Bq, approximately 9 fmol in terms of peptide amount) and 100 μL of RIA buffer solutions each containing a sequentially diluted VGF-derived peptide were added, this was incubated at 4° C. for 40 hours, and the labeled Peptide 1 and VGF-derived peptide were competitively bound to the antibody in the antiserum. As controls, reactions that use RIA buffer instead of the antiserum to measure non-specific binding, and reactions that use RIA buffer instead of VGF-derived peptide solutions to measure the maximum binding level were carried out. Reactions for non-specific binding were performed in quadruplicates, and the other reactions were performed in duplicates, and for each of the reactants, the immune complex was precipitated as in the above-mentioned antibody titer measurements, and its radioactivity (cpm) was measured. The average radioactivity of non-specific binding reaction is defined as non-specific binding level N, the radioactivity value for each VGF-derived peptide addition reaction is defined as Y, and the radioactivity value of maximum binding reaction is defined as Z. The percentage ratio (B/B0) of antiserum specific binding level (B) with peptide addition to the maximum binding level (B0), was determined using the following formula.
B/B0(%)={(Y−N)/(Z−N)}×100
Accordingly, the amount of peptide that achieves 50% B/B0, more specifically, the amount of peptide that yields 50% inhibition of the maximum binding level, was used as an indicator of the peptide binding activity to the antiserum.

[10] = system: uterus of apoaequorin-expressing mice; conditions: final concentration of 1 μmol/L; reported in WO02/010371; cited from earlier work
[11] = system: blood vessels of apoaequorin-expressing mice; conditions: final concentration of 1 μmol/L; reported in WO02/010371; cited from earlier work
[12] = system: adrenal glands of apoaequorin-expressing mice; conditions: final concentration of 1 μmol/L; reported in WO02/010371; cited from earlier work
[13] = system: thymus of apoaequorin-expressing mice; experiment: Intracellular calcium ion increase (aequorin luminescence), thymus; assay type: cell-based, mouse; conditions: peptide at final concentrations of 1 μmol/L and 5 μmol/L
Experimental: as §1, §2, §4

[14] = system: aortic cells of the apoaequorin-expressing mice; experiment: Intracellular calcium ion increase (aequorin luminescence), aorta; assay type: cell-based, mouse
Experimental: as §1, §2, §4

[15] = system: rats fed with high-calorie diets; conditions: administered into the rat ventricle, Non-patent Document 6; cited from earlier work
male rats = conditions: direct administration to the PVN of male rats; Non-patent Document 7; cited from earlier work

| Substance | increase of intracellular calcium concentration in hypothalamic cells (RLU per second) [1] | luminescence (intracellular calcium ion increase) in hypothalamus [1] | increase of intracellular calcium concentration in pituitary cells (RLU per second) ([2]; 5 μmol/L peptide) | luminescence (intracellular calcium ion increase) in pituitary gland [2] | luminescence (intracellular calcium ion increase) in medulla oblongata [3] | increase of intracellular calcium concentration in cardiac cells (RLU per second) [4] | luminescence (intracellular calcium ion increase) in heart [4] | increase of intracellular calcium concentration in kidney cells (RLU per second) [5] | luminescence (intracellular calcium ion increase) in kidney [5] | luminescence (intracellular calcium ion increase) in spleen [6] | luminescence (intracellular calcium ion increase) in uterus [7] | luminescence (intracellular calcium ion increase) in spinal cord [8] | luminescence (intracellular calcium ion increase) in thymus [13] | further results |
| --- | --- | --- | --- | --- | --- | --- | --- | --- | --- | --- | --- | --- | --- | --- |
| Peptide 5: amino acid sequence at position 211 to 236 in rat VGF (ASWGEFQARVPERAPLPPSVPSQFQA; synthetic Peptide 5, VGF-related peptide, rat VGF positions 211-236) | increase of intracellular calcium concentration | luminescence was observed | increase of intracellular calcium concentration | luminescence was observed | luminescence was observed | increase of intracellular calcium concentration | luminescence was observed | increase of intracellular calcium concentration | luminescence was observed | luminescence was observed | luminescence was observed | luminescence was observed |  |  |
| angiotensin II (DRVYIHPF) [non-VGF peptide] |  |  |  |  |  |  |  |  |  |  |  |  |  | inhibition of binding of the antiserum to labeled peptide [9]: none of these peptides showed inhibition; luminescence in uterus [10]: strong luminescence was observed; luminescence in blood vessels [11]: strong luminescence was observed; luminescence in adrenal glands [12]: strong luminescence was observed |
| Peptide 6: amino acid sequence at position 353 to 372 in rat VGF (GLQETQQERENEREEEAEQE; synthetic Peptide 6, VGF-related peptide, rat VGF positions 353-372) | increase of intracellular calcium concentration | luminescence was observed | increase of intracellular calcium concentration | luminescence was observed | luminescence was observed |  | luminescence was observed | increase of intracellular calcium concentration | luminescence was observed | luminescence was observed | luminescence was observed |  | luminescence was observed | increase of intracellular calcium concentration in aortic cells (RLU per second) ([14]; 1 μmol/L peptide, added at 25 seconds): increase of intracellular calcium concentration; luminescence (intracellular calcium ion increase) in aorta ([14]; peptide at final concentrations of 1 μmol/L and 5 μmol/L): luminescence was observed |
| Peptide 8: amino acid sequence at position 423 to 430 in rat VGF (SQEEAPGH; synthetic Peptide 8, VGF-related peptide, rat VGF positions 423-430) |  |  |  | luminescence was observed | luminescence was observed | increase of intracellular calcium concentration | luminescence was observed |  |  | luminescence was observed |  | luminescence was observed | luminescence was observed | increase of intracellular calcium concentration in pituitary cells (RLU per second) ([2]; 1 μmol/L peptide): increase of intracellular calcium concentration |
| rat VGF (556-576): known peptide, positions 556-576 of the rat VGF amino acid sequence |  |  |  |  |  |  |  |  |  |  |  |  |  | suppression of weight gain [15]: activity of suppressing weight gain; erection inducing activity (male rats): this activity was not observed |
